Several values for one entry are separate records, joined by “and”; a condition that tells them apart may be missing. Equal values may be shown once.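 Compound exposure: 48 hours, 5 concentrations, 96-well plates. The concentration for 50% growth inhibition is given as GI50. The concentration for full growth arrest is given as TGI.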
Key:
Experiment in all cases: NCI anticancer screen, dose series, 48 h
[1] = system: EKVX NSCLC
[2] = system: IGROV1 ovarian
[3] = system: KM12 colon
[4] = system: MALME-3M melanoma
[5] = system: OVCAR-5 ovarian
[6] = system: RPMI-8226 leukemia
[7] = system: SNB-19 CNS
[8] = system: SR leukemia
[9] = system: DMS 273 small cell lung
[10] = system: DMS 114 small cell lung

## Cn1ncc2cc(-c3cnc(N)c(Cl)c3N3CCC4(CCNC4=O)CC3)ccc21
[1]
  GI50: 12900 nM
  TGI: > 100 µM
[2]
  GI50: 14.8 µM
  TGI: > 100 µM
[3]
  GI50: 32.3 µM
  TGI: > 100 µM
[4]
  GI50: 37.5 µM
  TGI: > 100 µM
[5]
  GI50: > 100 µM
  TGI: > 100 µM
[6]
  GI50: 16 µM
  TGI: 95.5 µM
[7]
  GI50: 94.2 µM
  TGI: > 100 µM
[8]
  GI50: 6400 nM
  TGI: 57.2 µM

## COc1ccccc1-c1cc2c3c(nc4ccccc42)C(=O)c2cccnc2-c3n1
[1]
  GI50: 14800 nM
  TGI: 45.4 µM
[2]
  GI50: 3.78 µM
  TGI: 18.1 µM
[3]
  GI50: 9.88 µM
  TGI: 33.2 µM
[4]
  GI50: 15.4 µM
  TGI: 28.7 µM
[5]
  GI50: 15 µM
  TGI: 34 µM
[6]
  GI50: 34.6 µM
  TGI: > 100 µM
[7]
  GI50: 17.4 µM
  TGI: 33.8 µM
[8]
  GI50: > 100000 nM
  TGI: > 100 µM

## COc1ccc2c(c1)Oc1nc(N)c(C#N)c(N)c1C2Sc1ccc(SC)cc1 (configuration not stated)
[1]
  GI50: 1660 nM
  TGI: 3.09 µM
[2]
  GI50: 1.73 µM
  TGI: 3.78 µM
[3]
  GI50: 1.78 µM
  TGI: 3.49 µM
[4]
  GI50: 1.78 µM
  TGI: 3.35 µM
[5]
  GI50: 1.8 µM
  TGI: 3.55 µM
[6]
  GI50: 2.86 µM
  TGI: 6.43 µM
[7]
  GI50: 1.77 µM
  TGI: 3.18 µM
[8]
  GI50: 2250 nM
  TGI: 6.66 µM

## OCC(O)CC[CH2][Sn]([c]1ccccc1)([c]1ccccc1)[c]1ccccc1 (configuration not stated)
[9]
  GI50: 14.3 µM
  TGI: 29.6 µM
[1]
  GI50: 16500 nM
  TGI: 31.7 µM
[2]
  GI50: 16.3 µM
  TGI: 33.7 µM
[3]
  GI50: 13.9 µM
  TGI: 29.8 µM
[5]
  GI50: 14.9 µM
  TGI: 28.3 µM
[6]
  GI50: 14.4 µM
  TGI: 47.5 µM
[7]
  GI50: 19.4 µM
  TGI: 33.7 µM
[8]
  GI50: 49300 nM
  TGI: > 100 µM

## O=C1C=C(SCCO)C(=O)c2ccccc21
[1]
  GI50: 1460 nM
  TGI: 3.33 µM
[2]
  GI50: 3.61 µM
  TGI: 14.7 µM
[3]
  GI50: 2.61 µM
  TGI: 9.86 µM
[4]
  GI50: 1.81 µM
  TGI: 3.29 µM
[5]
  GI50: 4.92 µM
  TGI: 21.4 µM
[6]
  GI50: 2.09 µM
  TGI: 5 µM
[7]
  GI50: 1.9 µM
  TGI: 4.18 µM
[8]
  GI50: 2170 nM
  TGI: 5.75 µM

## O=c1/c(=C/c2cccc3ccccc23)sc2nc3ccccc3n12
[10]
  TGI: > 100 µM
[9]
  TGI: > 100 µM
[1]
  TGI: > 100 µM
[2]
  TGI: > 100 µM
[3]
  TGI: > 100 µM
[4]
  TGI: > 100 µM
[5]
  TGI: > 100 µM
[7]
  TGI: > 100 µM

## Cn1cc(-c2cc3c(Nc4ccc(CC(=O)Nc5cc(C(C)(C)C)on5)cc4)ncnc3[nH]2)cn1
[1]
  GI50: 1660 nM and 1810 nM
  TGI: 5.01 µM and 5.31 µM
[2]
  GI50: 1.1 µM and 0.948 µM
  TGI: 5.84 µM and 5.24 µM
[3]
  GI50: 0.0596 µM and 0.0468 µM
  TGI: 2.39 µM and 1.82 µM
[4]
  GI50: 0.615 µM and 0.354 µM
  TGI: 2.36 µM and 1.75 µM
[5]
  GI50: 1.3 µM and 1.08 µM
  TGI: 7.18 µM and 6.62 µM
[6]
  GI50: 2.03 µM and 1.07 µM
  TGI: 5.41 µM and 3.8 µM
[7]
  GI50: 0.492 µM and 0.399 µM
  TGI: 5.31 µM and 8.4 µM
[8]
  GI50: 328 nM and 324 nM
  TGI: > 53.7 µM

## COc1ccc(C2C3=C(NC(=O)C2C#N)c2ccc4ccccc4c2OCC3)cc1 (configuration not stated)
[1]
  GI50: 15800 nM
  TGI: 50.1 µM
[2]
  GI50: > 100 µM
  TGI: > 100 µM
[3]
  GI50: > 100 µM
  TGI: > 100 µM
[4]
  GI50: 34.9 µM
  TGI: 77.3 µM
[5]
  GI50: > 100 µM
  TGI: > 100 µM
[6]
  GI50: > 100 µM
  TGI: > 100 µM
[7]
  GI50: 58.8 µM
  TGI: > 100 µM
[8]
  GI50: > 100000 nM
  TGI: > 100 µM

## CC(C)(C)c1nc2c(o1)C(=Nc1ccccc1)c1ccccc1C2=O
[9]
  TGI: 11.3 µM
[1]
  TGI: 41 µM
[2]
  TGI: 33.6 µM
[3]
  TGI: 50.3 µM
[4]
  TGI: 3.01 µM
[5]
  TGI: 29.4 µM
[6]
  TGI: 50 µM
[7]
  TGI: 27.5 µM
[8]
  TGI: > 100 µM

## CCCC[C@@H]1NC(=O)[C@H](CCCCN)NC(=O)[C@H](CCCNC(=N)N)NC(=O)[C@H](CC(C)C)NC(=O)[C@@H](NC(=O)[C@H](Cc2cccc(Cl)c2)NC(=O)[C@@H]2CCCN2C(=O)[C@@H](NC(C)=O)C(C)C)CCSSC[C@@H](C(=O)N[C@@H](CCCCN)C(=O)N2CCC[C@H]2C(=O)N2CCC[C@H]2C(=O)N[C@@H](CCC(=O)O)C(N)=O)NC(=O)[C@H](Cc2ccccc2)NC(=O)[C@H](CO)NC(=O)[C@H](C)NC(=O)[C@@H]2CCCN2C1=O
[1]
  GI50: > 50000 nM
  TGI: > 50 µM
[2]
  GI50: > 50 µM
  TGI: > 50 µM
[3]
  GI50: > 50 µM
  TGI: > 50 µM
[4]
  GI50: > 50 µM
  TGI: > 50 µM
[5]
  GI50: > 50 µM
  TGI: > 50 µM
[6]
  GI50: > 50 µM
  TGI: > 50 µM
[7]
  GI50: > 50 µM
  TGI: > 50 µM
[8]
  GI50: > 50000 nM
  TGI: > 50 µM

## COc1ccc(-c2cc3cccc(OC)c3c(=O)o2)cc1OC
[1]
  GI50: 830 nM
  TGI: 39.5 µM
[2]
  GI50: > 100 µM
  TGI: > 100 µM
[3]
  GI50: 92.2 µM
  TGI: > 100 µM
[4]
  GI50: > 100 µM
  TGI: > 100 µM
[5]
  GI50: 85.5 µM
  TGI: > 100 µM
[6]
  GI50: 29.7 µM
  TGI: > 100 µM
[7]
  GI50: 41.3 µM
  TGI: > 100 µM
[8]
  GI50: 436 nM
  TGI: > 100 µM

## COc1cc(OC)cc(N2CCC(c3c(N)nc(N)nc3Cl)CC2)c1
[9]
  TGI: > 100 µM
[1]
  TGI: > 100 µM
[2]
  TGI: > 100 µM
[3]
  TGI: > 100 µM
[4]
  TGI: > 100 µM
[5]
  TGI: > 100 µM
[6]
  TGI: > 100 µM
[7]
  TGI: > 100 µM

## O=CC1=CCCC2(C1)OCCO2
[10]
  TGI: > 100 µM
[9]
  TGI: > 100 µM
[1]
  TGI: > 100 µM
[2]
  TGI: > 100 µM
[3]
  TGI: > 100 µM
[4]
  TGI: > 100 µM
[6]
  TGI: > 100 µM
[7]
  TGI: > 100 µM

## Cn1ncc2c(Nc3ccc(Br)cc3)nc(Nc3ccc(Br)cc3)nc21
[1]
  GI50: 2480 nM
  TGI: 9.73 µM
[2]
  GI50: 3.22 µM
  TGI: 16.7 µM
[3]
  GI50: 1.76 µM
  TGI: 3.48 µM
[4]
  GI50: 3.32 µM
  TGI: 14.7 µM
[5]
  GI50: 11.3 µM
  TGI: 24.1 µM
[6]
  GI50: 2.4 µM
  TGI: 8.87 µM
[7]
  GI50: 6.42 µM
  TGI: 18.9 µM
[8]
  GI50: 1690 nM
  TGI: 5.21 µM

## CCOc1ccc(NC(=O)Nc2cc(C(C)C)ccc2C)cc1
[1]
  GI50: 8550 nM
  TGI: > 96.7 µM
[2]
  GI50: 6.37 µM
  TGI: 15.7 µM
[3]
  GI50: 11.6 µM
  TGI: > 100 µM
[4]
  GI50: 3.74 µM
  TGI: 18.2 µM
[5]
  GI50: 11.9 µM
  TGI: > 76 µM
[6]
  GI50: 10.9 µM
  TGI: > 65.8 µM
[7]
  GI50: 10.4 µM
  TGI: 39 µM
[8]
  GI50: 952 nM
  TGI: > 22.9 µM

## COc1ccc(CC(=O)c2cc(OC)c(OC)cc2C)cc1OC
[10]
  TGI: > 100 µM
[1]
  TGI: > 100 µM
[2]
  TGI: > 100 µM
[3]
  TGI: > 100 µM
[4]
  TGI: > 100 µM
[5]
  TGI: > 100 µM
[6]
  TGI: > 100 µM
[7]
  TGI: > 100 µM

— PubChem BioAssay (NCI)
